Laboratory results taken from ChEMBL document CHEMBL1146952, “Synthesis and antibacterial activities of chiral 1,3-oxazinan-2-one derivatives” (2006).
≈ marks a conversion by molar mass, not a printed value. Calls of active or inactive are those of the source. No cut-off for these calls is given here.

Legend:
Type in all cases: functional
Staphylococcus aureus [1] = assay: Antibacterial activity against Staphylococcus aureus ATCC 29213
Staphylococcus aureus [2] = assay: Antibacterial activity against Staphylococcus aureus ATCC 43300
Enterococcus faecalis = assay: Antibacterial activity against Enterococcus faecalis ATCC 29212
Bacillus subtilis = assay: Antibacterial activity against Bacillus subtilis PY79

Structure (SMILES) | MIC50 (Staphylococcus aureus [1]) | MIC50 (Staphylococcus aureus [2]) | MIC50 (Enterococcus faecalis) | MIC50 (Bacillus subtilis) | MIC90 (Staphylococcus aureus [1]) | MIC90 (Staphylococcus aureus [2]) | MIC90 (Enterococcus faecalis) | MIC90 (Bacillus subtilis)
CN1C[C@@H](CN(Cc2ccccc2)Cc2ccc(F)c(F)c2)OC1=O | 119 µg/mL (≈ 344 µM) | inactive | inactive | 80 µg/mL (≈ 231 µM) |  |  |  | 
CCN1CC[C@@H](CN(Cc2ccccc2)Cc2ccccc2[N+](=O)[O-])OC1=O | 72 µg/mL (≈ 188 µM) | 100 µg/mL (≈ 261 µM) | 43 µg/mL (≈ 112 µM) | 100 µg/mL (≈ 261 µM) |  |  |  | 
CCN1CC[C@@H](CN(Cc2ccccc2)Cc2ccccc2C#N)OC1=O | 130 µg/mL (≈ 358 µM) | 180 µg/mL (≈ 495 µM) | 33 µg/mL (≈ 90.8 µM) | 160 µg/mL (≈ 440 µM) |  |  |  | 
CCN1CC[C@@H](CN(Cc2ccccc2)Cc2c(F)cccc2F)OC1=O | 47 µg/mL (≈ 126 µM) | 70 µg/mL (≈ 187 µM) | 59.5 µg/mL (≈ 159 µM) | 77 µg/mL (≈ 206 µM) |  |  |  | 
O=C(N[C@H](CO)[C@H](O)c1ccc([N+](=O)[O-])cc1)C(Cl)Cl [CHLORAMPHENICOL] |  |  |  |  | 7.44 µg/mL (≈ 23 µM) | 7.44 µg/mL (≈ 23 µM) | 4 µg/mL (≈ 12.4 µM) | 2 µg/mL (≈ 6.19 µM)
CCN1CC[C@@H](CN(Cc2ccccc2)Cc2ccccn2)OC1=O | inactive | inactive | inactive | inactive |  |  |  | 
CCN1CC[C@@H](CN(Cc2ccccc2)Cc2cc(F)cc(F)c2)OC1=O | 40 µg/mL (≈ 107 µM) | 45 µg/mL (≈ 120 µM) | 37 µg/mL (≈ 98.8 µM) | 43 µg/mL (≈ 115 µM) |  |  |  | 
CN1CC[C@@H](CN(Cc2ccccc2)Cc2ccc3ccccc3c2)OC1=O | 11.5 µg/mL (≈ 30.7 µM) | 13 µg/mL (≈ 34.7 µM) | 14.9 µg/mL (≈ 39.8 µM) | 12 µg/mL (≈ 32 µM) | 14.9 µg/mL (≈ 39.8 µM) |  |  | 30 µg/mL (≈ 80.1 µM)
CCN1CC[C@@H](CN(Cc2ccccc2)Cc2cccc(OC)c2)OC1=O | 90 µg/mL (≈ 244 µM) | 90 µg/mL (≈ 244 µM) | 80.5 µg/mL (≈ 218 µM) | 95 µg/mL (≈ 258 µM) |  |  |  | 
CCN1CC[C@@H](CN(Cc2ccccc2)Cc2ccc([N+](=O)[O-])cc2)OC1=O | inactive | inactive | 45 µg/mL (≈ 117 µM) | inactive |  |  |  | 
CCN1CC[C@@H](CN(Cc2ccccc2)Cc2cccc(C#N)c2)OC1=O | 238 µg/mL (≈ 655 µM) | inactive | 45 µg/mL (≈ 124 µM) | 238 µg/mL (≈ 655 µM) |  |  |  | 
CCN1CC[C@@H](CN(Cc2ccccc2)Cc2ccc(Cl)c(Cl)c2)OC1=O | 5.6 µg/mL (≈ 13.7 µM) | 6.56 µg/mL (≈ 16.1 µM) | inactive | 5 µg/mL (≈ 12.3 µM) | 9.85 µg/mL (≈ 24.2 µM) |  |  | 7.44 µg/mL (≈ 18.3 µM)
CN1CC[C@@H](CN(Cc2ccccc2)Cc2cccc(C#N)c2)OC1=O | 180 µg/mL (≈ 515 µM) | 238 µg/mL (≈ 681 µM) | 7.4 µg/mL (≈ 21.2 µM) | 180 µg/mL (≈ 515 µM) |  |  |  | 
CN1CC[C@@H](CN(Cc2ccccc2)Cc2ccc([N+](=O)[O-])cc2)OC1=O | 81 µg/mL (≈ 219 µM) | inactive | 119 µg/mL (≈ 322 µM) | 98 µg/mL (≈ 265 µM) |  |  |  | 
CN1CC[C@@H](CN(Cc2ccccc2)Cc2cccc([N+](=O)[O-])c2)OC1=O | 138 µg/mL (≈ 374 µM) | inactive | 119 µg/mL (≈ 322 µM) | 238 µg/mL (≈ 644 µM) |  |  |  | 
CCN1CC[C@@H](CN(Cc2ccccc2)Cc2ccc3ccccc3c2)OC1=O | 15 µg/mL (≈ 38.6 µM) | inactive | 13 µg/mL (≈ 33.5 µM) | 29 µg/mL (≈ 74.6 µM) |  |  |  | 

Structure (SMILES) | MIC50 (Staphylococcus aureus [1]) | MIC50 (Staphylococcus aureus [2]) | MIC50 (Enterococcus faecalis) | MIC50 (Bacillus subtilis) | MIC90 (Staphylococcus aureus [1]) | MIC90 (Staphylococcus aureus [2]) | MIC90 (Enterococcus faecalis) | MIC90 (Bacillus subtilis)
CCN1CC[C@@H](CN(Cc2ccccc2)Cc2cccnc2)OC1=O | inactive | inactive | 238 µg/mL (≈ 701 µM) | inactive |  |  |  | 
CCN1CC[C@@H](CN(Cc2ccccc2)Cc2cccc3ccccc23)OC1=O | 10 µg/mL (≈ 25.7 µM) | 35 µg/mL (≈ 90.1 µM) | 7.4 µg/mL (≈ 19 µM) | 7.6 µg/mL (≈ 19.6 µM) | 14.9 µg/mL (≈ 38.4 µM) |  |  | 30 µg/mL (≈ 77.2 µM)
CCN1CC[C@@H](CN(Cc2ccccc2)Cc2cccc([N+](=O)[O-])c2)OC1=O | 90 µg/mL (≈ 235 µM) | 22 µg/mL (≈ 57.4 µM) | 47 µg/mL (≈ 123 µM) | 108 µg/mL (≈ 282 µM) |  |  |  | 
CN1C[C@@H](CN(Cc2ccccc2)Cc2ccc(F)cc2F)OC1=O | 85 µg/mL (≈ 245 µM) | 119 µg/mL (≈ 344 µM) | inactive | 90 µg/mL (≈ 260 µM) |  |  |  | 
CN1CC[C@@H](CN(Cc2ccccc2)Cc2ccc(F)cc2F)OC1=O | 50 µg/mL (≈ 139 µM) | 72 µg/mL (≈ 200 µM) | 59.5 µg/mL (≈ 165 µM) | 55 µg/mL (≈ 153 µM) |  |  |  | 
CN1CC[C@@H](CN(Cc2ccccc2)Cc2ccc(F)cc2)OC1=O | 87.1 µg/mL (≈ 254 µM) | 119 µg/mL (≈ 348 µM) | 120 µg/mL (≈ 350 µM) | 95 µg/mL (≈ 277 µM) |  |  |  | 
CN1C[C@@H](CN(Cc2ccccc2)Cc2ccccc2Br)OC1=O | 18 µg/mL (≈ 46.2 µM) | 21 µg/mL (≈ 53.9 µM) | 7.4 µg/mL (≈ 19 µM) | 22 µg/mL (≈ 56.5 µM) |  |  |  | 
CN1C[C@@H](CN(Cc2ccccc2)Cc2ccc(F)cc2)OC1=O | inactive | inactive | inactive | inactive |  |  |  | 
CN1C[C@@H](CN(Cc2ccccc2)Cc2ccc(Br)cc2)OC1=O | 20 µg/mL (≈ 51.4 µM) | 59.5 µg/mL (≈ 153 µM) | inactive | 22 µg/mL (≈ 56.5 µM) |  |  |  | 
CCN1CC[C@@H](CN(Cc2ccccc2)Cc2ccccc2C)OC1=O | 22 µg/mL (≈ 62.4 µM) | 22.5 µg/mL (≈ 63.8 µM) | 8.1 µg/mL (≈ 23 µM) | 26 µg/mL (≈ 73.8 µM) | 29.8 µg/mL (≈ 84.5 µM) |  |  | 59.5 µg/mL (≈ 169 µM)
CN1CC[C@@H](CN(Cc2ccccc2)Cc2ccccc2C#N)OC1=O | 166 µg/mL (≈ 475 µM) | 180 µg/mL (≈ 515 µM) | 59.5 µg/mL (≈ 170 µM) | 180 µg/mL (≈ 515 µM) |  |  |  | 
CN1CC[C@@H](CN(Cc2ccccc2)Cc2ccccc2[N+](=O)[O-])OC1=O | 179 µg/mL (≈ 485 µM) | inactive | 238 µg/mL (≈ 644 µM) | 238 µg/mL (≈ 644 µM) |  |  |  | 
CN1CC[C@@H](CN(Cc2ccccc2)Cc2ccc(C#N)cc2)OC1=O | 200 µg/mL (≈ 572 µM) | inactive | 238 µg/mL (≈ 681 µM) | 238 µg/mL (≈ 681 µM) |  |  |  | 
CCN1CC[C@@H](CN(Cc2ccccc2)Cc2ccc(C#N)cc2)OC1=O | 180 µg/mL (≈ 495 µM) | 59.5 µg/mL (≈ 164 µM) | 12 µg/mL (≈ 33 µM) | 10 µg/mL (≈ 27.5 µM) |  |  |  | 
CCN1CC[C@@H](CN(Cc2ccccc2)Cc2ccc(F)cc2)OC1=O | 64 µg/mL (≈ 180 µM) | 47 µg/mL (≈ 132 µM) | 35 µg/mL (≈ 98.2 µM) | 42.5 µg/mL (≈ 119 µM) |  |  |  | 
CCN1CC[C@@H](CN(Cc2ccccc2)Cc2ccc(F)cc2F)OC1=O | 45 µg/mL (≈ 120 µM) | 50.5 µg/mL (≈ 135 µM) | 59.5 µg/mL (≈ 159 µM) | 38 µg/mL (≈ 101 µM) |  |  |  | 
